According to US9422293B2 (priority 2006, dated 2016):
Where a name gives a salt, the structure may show the parent alone.

The molecules below were run against rat TRPV1 (Rattus norvegicus (Rat), UniProt O35433). Conditions: read-out: Rat IC50.
rat TRPV1, sequence (O35433 whole entry): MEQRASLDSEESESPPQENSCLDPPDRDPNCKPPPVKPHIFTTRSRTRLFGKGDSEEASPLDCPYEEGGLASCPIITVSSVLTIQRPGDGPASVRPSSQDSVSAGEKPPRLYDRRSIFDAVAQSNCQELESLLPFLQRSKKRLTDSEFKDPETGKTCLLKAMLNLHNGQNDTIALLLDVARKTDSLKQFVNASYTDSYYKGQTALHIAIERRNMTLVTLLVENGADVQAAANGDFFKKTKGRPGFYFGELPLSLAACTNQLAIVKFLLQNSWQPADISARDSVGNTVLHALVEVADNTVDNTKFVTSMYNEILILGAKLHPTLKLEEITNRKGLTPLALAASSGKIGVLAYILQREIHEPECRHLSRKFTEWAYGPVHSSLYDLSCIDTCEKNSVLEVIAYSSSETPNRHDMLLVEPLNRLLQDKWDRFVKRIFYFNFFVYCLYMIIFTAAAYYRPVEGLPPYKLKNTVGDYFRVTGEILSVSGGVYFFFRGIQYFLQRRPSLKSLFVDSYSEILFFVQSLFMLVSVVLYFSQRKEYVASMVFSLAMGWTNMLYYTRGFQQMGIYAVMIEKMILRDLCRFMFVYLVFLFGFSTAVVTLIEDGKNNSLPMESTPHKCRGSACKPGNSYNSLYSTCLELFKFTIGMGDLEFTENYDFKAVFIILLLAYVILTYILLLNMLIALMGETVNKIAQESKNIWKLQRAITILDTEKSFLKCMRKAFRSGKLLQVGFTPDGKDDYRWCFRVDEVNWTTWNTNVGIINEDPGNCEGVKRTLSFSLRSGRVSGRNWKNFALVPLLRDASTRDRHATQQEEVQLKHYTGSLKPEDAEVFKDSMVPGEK

| SMILES | IC50 [nM] |
| --- | --- |
| CN(C)CCN(C)c1nc2c(c(Nc3ccc(C(C)(C)C)cc3)n1)CCN(c1ncccc1C(F)(F)F)CC2 [Example 254, N^2-[2-(Dimethylamino)ethyl]-N^4-[4-(1,1-dimethylethyl)phenyl]-N^2-methyl-7-[3-(trifluoromethyl)pyridin-2-yl]-6,7,8,9-tetrahydro-5H-pyrimido[4,5-d]azepine-2,4-diamine] | 100 |
| CN1CCC(Oc2nc3c(c(Nc4ccc(C(F)(F)F)cc4)n2)CCN(c2ncccc2C(F)(F)F)CC3)CC1 [Example 311, 2-[(1-Methylpiperidin-4-yl)oxy]-N-[4-(trifluoromethyl)phenyl]-7-[3-(trifluoromethyl)pyridin-2-yl]-6,7,8,9-tetrahydro-5H-pyrimido[4,5-d]azepin-4-amine] | > 20000 |
| CC(C)(O)c1ccc(Nc2nc(N3CCOCC3)nc3c2CCN(c2ncccc2C(F)(F)F)CC3)cc1 [Example 389, 2-{4-[2-Morpholin-4-yl-7-(3-trifluoromethyl-pyridin-2-yl)-6,7,8,9-tetrahydro-5H-pyrimido[4,5-d]azepin-4-ylamino]-phenyl}-propan-2-ol] | 320 |
| CN(C)c1nc2c(c(NC3Cc4ccccc4C3)n1)CCN(c1ncccc1C(F)(F)F)CC2 [Example 82B, N^4-Indan-2-yl-N^2,N^2-dimethyl-7-(3-trifluoromethyl-pyridin-2-yl)-6,7,8,9-tetrahydro-5H-pyrimido[4,5-d]azepine-2,4-diamine trifluoroacetic acid salt] | 2800 |
| CC(C)c1nc2c(c(Nc3ccc(C(F)(F)F)cc3)n1)CCN(c1ncccc1NS(C)(=O)=O)CC2 [Example 281, N-{2-[2-(1-Methylethyl)-4-{[4-(trifluoromethyl)phenyl]amino}-5,6,8,9-tetrahydro-7H-pyrimido[4,5-d]azepin-7-yl]pyridin-3-yl}methanesulfonamide] | 2620 |
| FC(F)(F)c1ccc(Nc2nc(NCC3CCCCC3)nc3c2CCN(c2ncccc2C(F)(F)F)CC3)cn1 [Example 270, N^2-(Cyclohexylmethyl)-7-[3-(trifluoromethyl)pyridin-2-yl]-N^4-[6-(trifluoromethyl)pyridin-3-yl]-6,7,8,9-tetrahydro-5H-pyrimido[4,5-d]azepine-2,4-diamine] | 830 |
| FC(F)(F)c1ccc(Nc2nc(N3CCCCCC3)nc3c2CCN(c2ncccc2C(F)(F)F)CC3)cn1 [Example 223, 2-Azepan-1-yl-7-[3-(trifluoromethyl)pyridin-2-yl]-N-[6-(trifluoromethyl)pyridin-3-yl]-6,7,8,9-tetrahydro-5H-pyrimido[4,5-d]azepin-4-amine] | 30 |
| CN(C)c1nc2c(c(Nc3ccc(Cl)cc3)n1)CCN(c1ncccc1C(F)(F)F)CC2 [Example 50B, N^4-(4-Chloro-phenyl)-N^2,N^2-dimethyl-7-(3-trifluoromethyl-pyridin-2-yl)-6,7,8,9-tetrahydro-5H-pyrimido[4,5-d]azepine-2,4-diamine trifluoroacetic acid salt] | 910 |
| Cc1ccc(Nc2nc(C(C)C)nc3c2CCN(c2ncccc2C(F)(F)F)CC3)cc1 [Example 151, 2-(1-Methylethyl)-N-(4-methylphenyl)-7-[3-(trifluoromethyl)pyridin-2-yl]-6,7,8,9-tetrahydro-5H-pyrimido[4,5-d]azepin-4-amine hydrochloride salt] | 820 |
| COC(=O)C(C)(C)c1ccc(Nc2nc(N3CCOCC3)nc3c2CCN(c2ncccc2C(F)(F)F)CC3)cc1 [Example 376, 2-Methyl-2-{4-[2-morpholin-4-yl-7-(3-trifluoromethyl-pyridin-2-yl)-6,7,8,9-tetrahydro-5H-pyrimido[4,5-d]azepin-4-ylamino]-phenyl}-propionic acid methyl ester] | 110 |
| O=S(=O)(c1ccc(Nc2nc(OC3CCCC3)nc3c2CCN(c2ncccc2C(F)(F)F)CC3)cc1)C(F)(F)F [Example 319, 2-(Cyclopentyloxy)-7-[3-(trifluoromethyl)pyridin-2-yl]-N-{4-[(trifluoromethyl)sulfonyl]phenyl}-6,7,8,9-tetrahydro-5H-pyrimido[4,5-d]azepin-4-amine] | 240 |
| CC(C)c1nc2c(c(Nc3ccc(C(C)(C)O)cc3)n1)CCN(c1ncccc1C(F)(F)F)CC2 [Example 178, 2-[4-({2-(1-Methylethyl)-7-[3-(trifluoromethyl)pyridin-2-yl]-6,7,8,9-tetrahydro-5H-pyrimido[4,5-d]azepin-4-yl}amino)phenyl]propan-2-ol] | 110 |
| CN1CCN(c2nc3c(c(Nc4ccc(C(F)(F)F)cc4)n2)CCN(c2ncccc2C(F)(F)F)CC3)CC1 [Example 92B, [2-(4-Methyl-piperazin-1-yl)-7-(3-trifluoromethyl-pyridin-2-yl)-6,7,8,9-tetrahydro-5H-pyrimido[4,5-d]azepin-4-yl]-(4-trifluoromethyl-phenyl)-amine trifluoroacetic acid salt] | 270 |
| CC(C)c1nc2c(c(Nc3ccc(Oc4ccccc4)cc3)n1)CCN(c1ncccc1C(F)(F)F)CC2 [Example 25, [2-Isopropyl-7-(3-trifluoromethyl-pyridin-2-yl)-6,7,8,9-tetrahydro-5H-pyrimido[4,5-d]azepin-4-yl]-(4-phenoxy-phenyl)-amine] | 770 |
| CSc1nc2c(c(Nc3ccc(C(F)(F)F)cc3)n1)CCN(c1ncccc1C(F)(F)F)CC2 [Example 52, [2-Methylsulfanyl-7-(3-trifluoromethyl-pyridin-2-yl)-6,7,8,9-tetrahydro-5H-pyrimido[4,5-d]azepin-4-yl]-(4-trifluoromethyl-phenyl)-amine] | 53 |
| O=S(=O)(c1ccc(Nc2nc(Sc3ccccc3)nc3c2CCN(c2ncccc2C(F)(F)F)CC3)cc1)C(F)(F)F [Example 350, 2-(Phenylsulfanyl)-7-[3-(trifluoromethyl)pyridin-2-yl]-N-{4-[(trifluoromethyl)sulfonyl]phenyl}-6,7,8,9-tetrahydro-5H-pyrimido[4,5-d]azepin-4-amine] | 30 |
| CN(C)c1nc2c(c(Nc3ccc(C(F)(F)F)c(Cl)c3)n1)CCN(c1ncccc1C(F)(F)F)CC2 [Example 45, N^4-(3-Chloro-4-trifluoromethyl-phenyl)-N^2,N^2-dimethyl-7-(3-trifluoro-methyl-pyridin-2-yl)-6,7,8,9-tetrahydro-5H-pyrimido[4,5-d]azepine-2,4-diamine] | 90 |
| Cc1cc(C(F)(F)F)ccc1Nc1nc(SCC(C)O)nc2c1CCN(c1ncccc1C(F)(F)F)CC2 (centres unmarked) [Example 367, 1-[(4-{[2-Methyl-4-(trifluoromethyl)phenyl]amino}-7-[3-(trifluoromethyl)pyridin-2-yl]-6,7,8,9-tetrahydro-5H-pyrimido[4,5-d]azepin-2-yl)sulfanyl]propan-2-ol] | > 6670 |
| CC(C)NS(=O)(=O)c1cccnc1N1CCc2nc(N3CCCCC3)nc(Nc3ccc(C(F)(F)F)cc3)c2CC1 [Example 300, N-(1-Methylethyl)-2-(2-piperidin-1-yl-4-{[4-(trifluoromethyl)phenyl]amino}-5,6,8,9-tetrahydro-7H-pyrimido[4,5-d]azepin-7-yl)pyridine-3-sulfonamide] | 2000 |
| Cc1cc(C(F)(F)F)ccc1Nc1nc(S(C)(=O)=O)nc2c1CCN(c1ncccc1C(F)(F)F)CC2 [Example 209, 2-(Methylsulfonyl)-N-[2-methyl-4-(trifluoromethyl)phenyl]-7-[3-(trifluoromethyl)pyridin-2-yl]-6,7,8,9-tetrahydro-5H-pyrimido[4,5-d]azepin-4-amine] | 3450 |
